Experimental data reported in patent US11013732B2, “Use of macroazapyridinophanes metal complexes in the treatment of diseases” (BIONOS BIOTECH, S.L, priority 2017, dated 2021).

Test system: Caenorhabditis elegans expressing 110Q::TdTomato in mechanosensory neurons
Assay: Gentle touch sensitivity in C. elegans' Huntington's disease model expressing 110Q::TdTomato
Assay type: in vivo
Conditions: 110Q::TdTomato animals without metal complex (II)
Protocol: The study was conducted to assess whether administration of metal complex (II) improves the neurosensitivity (gentle touch sensitivity) in Caenorhabditis elegans' (C. elegans) Huntington's disease model.
The initial and most generally used method to test for gentle touch sensitivity is to stroke animals with an eyebrow hair that has been glued to the end of a toothpick (FIG. 4).
C. elegans expressing 110CAG fused in frame with TdTomato in mechanosensory neurons aggregate and induced neural impairment were used. […] The tissue in light grey is the marker for transgenesis (i.e. green fluorescent protein (GFP) expressed in the pharynx).
The test was carried out using non-treated animals (expressing 110Q::TdTomato and thus showing neuronal impairment) as a control C, and animals treated with Metformin at 2 mM were used as a positive control. Each test was carried out treating animals (expressing 110Q::TdTomato showing neuronal impairment) with 5, 10 and 20 μM concentrations of metal complex (II), using non-treated animals as a control and animals treated with Metformin at a concentration of 2 mM as a positive control.
Finally, it was tested whether the rescue of the neuronal impairment due to 110Q::TdTomato expression shown with the treatment of metal complex (II) is produced by activation of autophagy. […]

With `CCN(CC)CCCC(C)Nc1ccnc2cc(Cl)ccc12` (stereo not shown) [Chloroquine, reference compound] the “% of individuals showing touch response, chloroquine alone” value was “does not induce additional touch response impairment”.
